The values below are quoted from earlier work in patent publication US20120201867A1, “DRUG DELIVERY FROM EMBOLIC AGENTS” (priority 2004, published 2012).

Structures can show the parent of a compound that is named as a salt.

For series [1], the system named is topoisomerase I purified from human and rodent tumour cell lines. Conditions: SN-38 versus irinotecan.
Another series relates to CC531-lacZ cells. Conditions: Saenger et al.

With `CCc1c2c(nc3ccc(O)cc13)-c1cc3c(c(=O)n1C2)COC(=O)[C@]3(O)CC` [SN-38], the “potency relative to irinotecan as an inhibitor of topoisomerase I” value in series [1] is given as “approximately 1000 times”.

In the case of `CCc1c2c(nc3ccc(OC(=O)N4CCC(N5CCCCC5)CC4)cc13)-c1cc3c(c(=O)n1C2)COC(=O)[C@]3(O)CC` [irinotecan, Irinotecan hydrochloride trihydrate], in the series on CC531-lacZ cells, the “complete remission, share of rats” value is given as 44% and the “reduction of the mean tumour cell load” value was 66%.
